Like-named read-outs stand apart in the source and are kept apart here.
Target: T1, human mAChR M1 (Homo sapiens, UniProt P11229)
T1 sequence (P11229 1-460): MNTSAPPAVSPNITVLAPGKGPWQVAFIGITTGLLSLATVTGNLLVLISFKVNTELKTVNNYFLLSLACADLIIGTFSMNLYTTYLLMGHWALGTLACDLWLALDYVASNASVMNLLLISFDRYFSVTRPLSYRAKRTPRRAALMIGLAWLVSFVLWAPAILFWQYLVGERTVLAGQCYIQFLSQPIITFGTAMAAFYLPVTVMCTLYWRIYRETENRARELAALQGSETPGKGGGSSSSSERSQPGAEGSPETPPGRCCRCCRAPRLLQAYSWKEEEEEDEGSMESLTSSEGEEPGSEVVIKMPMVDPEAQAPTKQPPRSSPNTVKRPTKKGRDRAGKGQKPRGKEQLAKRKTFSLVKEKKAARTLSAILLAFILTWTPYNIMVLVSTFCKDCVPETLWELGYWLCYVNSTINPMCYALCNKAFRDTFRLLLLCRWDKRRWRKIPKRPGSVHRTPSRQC
Assay: mAChR M1 cell-based functional assay: calcium mobilization, positive allosteric modulator mode (increase in EC20 acetylcholine response)
Conditions: for Emax: read-out: Human M1 Emax (%)
Summary of the method: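 PAM potency reflects the concentration-dependent increase in calcium response to an EC20 acetylcholine challenge, given 144 s into a 300 s read after compound addition at 4 s (EC80 follows at 230 s). Cells were hM1-expressing CHO-K1, loaded 50 min with Fluo-4 AM. Curves used 11 points at 1:3 dilutions and four-parameter logistic fitting.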

[1] = Table 2, human M1, read-out: Human M1 EC50
[2] = Table 1, mAChR M1 cell-based functional assay, PAM mode, species not given, read-out: EC50

| EC50 [1] [nM] | Emax (Table 2, human M1) [%] | EC50 [2] [nM] | Structure (SMILES) |
| --- | --- | --- | --- |
| 1970 | 69.3 | – | O=C(NC1CCOC1)c1cc(Cc2ccc(-n3cccn3)cc2)c2sccc2n1 (stereo not shown) [Compound 440, 7-[(4-pyrazol-1-ylphenyl)methyl]-N-tetrahydrofuran-3-yl-thieno[3,2-b]pyridine-5-carboxamide] |
| 722 | 88.5 | – | Cn1cc(-c2ccc(Cc3cc(C(=O)N[C@@H]4CCOC4)nc4ccsc34)cc2)nn1 [Compound 150, 7-[[4-(1-methyltriazol-4-yl)phenyl]methyl]-N-[(3R)-tetrahydrofuran-3-yl]thieno[3,2-b]pyridine-5-carboxamide] |
| – | – | 4960 | Cc1ccc(Cc2cc(C(=O)NC3CCOCC3)nc3ccsc23)cn1 [Compound 50, 7-[(6-methyl-3-pyridyl)methyl]-N-tetrahydropyran-4-yl-thieno[3,2-b]pyridine-5-carboxamide] |
| 2530 | 75.4 | – | Cc1nc(-c2ccc(Cc3cc(C(=O)NC4CCCN(C)C4)nc4ccsc34)cc2)co1 (stereo not shown) [Compound 163, 7-[[4-(2-methyloxazol-4-yl)phenyl]methyl]-N-(1-methyl-3-piperidyl)thieno[3,2-b]pyridine-5-carboxamide] |
| 3890 | 69.7 | – | O=C(NC1CCCCC1)c1cc(Cc2ccc(-c3cscn3)cc2)c2sccc2n1 [Compound 209, N-cyclohexyl-7-[(4-thiazol-4-ylpheny)methyl]thieno[3,2-b]pyridine-5-carboxamide] |
| 273 | 79.9 | – | O=C(NC1CCOCC1)c1cc(Cc2ccc(-c3nccs3)cc2)c2sccc2n1 [Compound 296] |
| 2840 | 83.9 | – | CC1CC(NC(=O)c2cc(Cc3ccc(-c4ccn(C)n4)cc3)c3sccc3n2)CC(C)O1 (stereo not shown) [Compound 326, N-(2,6-dimethyltetrahydropyran-4-yl)-7-[[4-(1-methylpyrazol-3-yl)phenyl]methyl]thieno[3,2-b]pyridine-5-carboxamide] |
| 400 | 68.1 | – | O=C(NC1CCS(=O)(=O)C1)c1cc(Cc2ccc(-n3cccn3)cc2)c2sccc2n1 (stereo not shown) [Compound 439, N-(1,1-dioxothiolan-3-yl)-7-[(4-pyrazol-1-ylphenyl)methyl]thieno[3,2-b]pyridine-5-carboxamide] |
| 1890 | 70.2 | – | CCN1CCC[C@H]1CNC(=O)c1cc(Cc2ccc(-c3ccn(C)n3)nc2)c2sccc2n1 [Compound 428] |
| 84.9 | 72.4 | – | Cn1cc(-c2ccc(Cc3cc(C(=O)NC4CCOCC4(C)C)nc4ccsc34)cn2)cn1 (stereo not shown) [Compound 362, N-(3,3-dimethyltetrahydropyran-4-yl)-7-[[6-(1-methylpyrazol-4-yl)-3-pyridyl]methyl]thieno[3,2-b]pyridine-5-carboxamide] |
| – | – | 1990 | Cc1ccc(Cc2cc(C(=O)NC3CCCCC3)nc3ccsc23)cn1 [Compound 43, N-cyclohexyl-7-[(6-methyl-3-pyridyl)methyl]thieno[3,2-b]pyridine-5-carboxamide] |
| 1050 | 86.2 | – | Cc1csc2c(Cc3ccc(-n4cccn4)cc3)cc(C(=O)NC3CCOCC3)nc12 [Compound 115, 3-methyl-7-[(4-pyrazol-1-ylphenyl)methyl]-N-tetrahydropyran-4-yl-thieno[3,2-b]pyridine-5-carboxamide] |
| > 10000 | 57.4 | – | Cn1ncc2nc(C(=O)NCC3CCO3)cc(Cc3ccc(-n4cccn4)cc3)c21 (stereo not shown) [Compound 501, 1-methyl-N-(oxetan-2-ylmethyl)-7-[(4-pyrazol-1-ylphenyl)methyl]pyrazolo[4,3-b]-pyridine-5-carboxamide] |
| 6.43 | 70.4 | – | Cn1ccc(-c2ccc(Cc3cc(C(=O)N[C@H]4CCOC[C@@H]4O)nc4ccn(C)c34)cc2)n1 [Compound 474, N-[(3R,4S)-3-hydroxytetrahydropyran-4-yl]-1-methyl-7-[[4-(1-methylpyrazol-3-yl)phenyl]methyl]pyrrolo[3,2-b]pyridine-5-carboxamide] |
| 203 | 74.5 | – | Cn1cc(-c2ccc(Cc3cc(C(=O)NC4CC(F)(F)C4)nc4ccsc34)cn2)cn1 [Compound 345, N-(3,3-difluorocyclobutyl)-7-[[6-(1-methylpyrazol-4-yl)-3-pyridyl]methyl]thieno[3,2-b]pyridine-5-carboxamide] |
| 2210 | 63.1 | – | CN1CC(NC(=O)c2cc(Cc3ccc(-n4cccn4)cc3)c3sccc3n2)CC1=O (stereo not shown) [Compound 438, N-(1-methyl-5-oxo-pyrrolidin-3-yl)-7-[(4-pyrazol-1-ylphenyl)methyl]thieno[3,2-b]pyridine-5-carboxamide] |

| EC50 [1] [nM] | Emax (Table 2, human M1) [%] | EC50 [2] [nM] | Structure (SMILES) |
| --- | --- | --- | --- |
| – | – | 3770 | Cc1ccc(Cc2cc(C(=O)N[C@@H]3CC[C@H]3O)nc3ccsc23)cn1 [Compound 44] |
| 386 | 57 | – | Cn1ccc2nc(C(=O)NC3CC4(COC4)C3)cc(Cc3ccc(-c4nccs4)cc3)c21 [Compound 481, 1-methyl-N-(2-oxaspiro[3.3]heptan-6-yl)-7-[(4-thiazol-2-ylphenyl)methyl]pyrrolo[3,2-b]pyridine-5-carboxamide] |
| > 10000 | 41.7 | – | O=C(NC1COC1)c1cc(Cc2ccc(-c3cncs3)cc2)c2sccc2n1 [Compound 402, N-(oxetan-3-yl)-7-[(4-thiazol-5-ylphenyl)methyl]thieno[3,2-b]pyridine-5-carboxamide] |
| 1710 | 72.9 | – | Cn1ncc2nc(C(=O)N[C@H]3CCC[C@@H]3O)cc(Cc3ccc(-c4cscn4)cc3)c21 [Compound 491, N-[(1S,2S)-2-hydroxycyelopentyl]-1-methyl-7-[(4-thiazol-4-ylphenyl)methyl]pyrazolo-[4,3-b]pyridine-5-carboxamide] |
| > 10000 | 51.5 | – | Cc1ncc(Cc2cc(C(=O)N[C@@H]3COCC[C@H]3O)nc3ccsc23)cn1 [Compound 129, N-[(3R,4R)-4-hydroxytetrahydropyran-3-yl]-7-[(2-methylpyrimidin-5-yl)methyl]thieno[3,2-b]pyridine-5-carboxamide] |
| 922 | 72.8 | – | CC(NC(=O)c1cc(Cc2ccc(-n3cccn3)cc2)c2sccc2n1)C1CCCO1 (stereo not shown) [Compound 446, 7-[(4-pyrazol-1-ylphenyl)methyl]-N-(1-tetrahydrofuran-2-ylethyl)thieno[3,2-b]pyridine-5-carboxamide] |
| 2550 | 74.6 | – | Cc1nc(-c2ccc(Cc3cc(C(=O)NC4CCN(C)CC4)nc4ccsc34)cc2)co1 [Compound 164, 7-[[4-(2-methyloxazol-4-yl)phenyl]methyl]-N-(1-methyl-4-piperidyl)thieno[3,2-b]pyridine-5-carboxamide] |
| 2640 | 80.1 | – | Cn1cc(-c2cc(F)c(Cc3cc(C(=O)N[C@H]4CCCC[C@@H]4O)nc4ccsc34)c(F)c2)cn1 [Compound 57, 7-[[2,6-difluoro-4-(1-methylpyrazol-4-yl)phenyl]methyl]-N-[(1S,2S)-2-hydroxycyclohexyl]thieno[3,2-b]pyridine-5-carboxamide] |
| > 10000 | 52.9 | – | O=C(c1cc(Cc2ccc(-n3cccn3)cc2)c2sccc2n1)N1CCNCC1 [Compound 83, piperazin-1-yl-[7-[(4-pyrazol-1-ylphenyl)methyl]thieno[3,2-b]pyridin-5-yl]methanone] |
| 3930 | 77.5 | – | Cc1nc(-c2ccc(Cc3cc(C(=O)N[C@@H]4CCOC4)nc4ccsc34)cc2)co1 [Compound 160, 7-[[4-(2-methyloxazol-4-yl)phenyl]methyl]-N-[(3R)-tetrahydrofuran-3-yl]thieno[3,2-b]pyridine-5-carboxamide] |
| 5700 | 31.1 | – | Cn1cc(-c2ccc(Cc3cc(C(=O)N[C@@H]4CC[C@H]4O)nc4ccsc34)c(F)c2)cn1 [Compound 55, 7-[[2-fluoro-4-(1-methylpyrazol-4-yl)phenyl]methyl]-N-[(1R,2R)-2-hydroxycyclobutyl]thieno[3,2-b]pyridine-5-carboxamide] |
| 379 | 70.3 | – | C[C@@H]1CC(NC(=O)c2cc(Cc3ccc(-c4cscn4)cc3)c3c(ccn3C)n2)C[C@H](C)O1 (stereo partly drawn) [Compound 460, N-[(2S,6R)-2,6-dimethyltetrahydropyran-4-yl]-1-methyl-7-[(4-thiazol-4-ylphenyl)methyl]pyrrolo[3,2-b]pyridine-5-carboxamide] |
| 9.36 | 66.2 | – | Cn1cc(-c2ccc(Cc3cc(C(=O)N[C@H]4CCCCC[C@@H]4O)nc4ccsc34)cn2)cn1 [Compound 226, N-[(1S,2S)-2-hydroxycycloheptyl]-7-[[6-(1-methylpyrazol-4-yl)-3-pyridyl]methyl]thieno[3,2-b]pyridine-5-carboxamide] |
| > 10000 | 56.4 | – | Cc1ccc(Cc2cc(C(=O)N[C@@H]3CCCNC3)nc3ccsc23)cn1 [Compound 265, 7-[(6-methyl-3-pyridyl)methyl]-N-[(3R)-3-piperidyl]thieno[3,2-b]pyridine-5-carboxamide] |
| > 10000 | 65.7 | – | Cn1ncc2nc(C(=O)N[C@@H]3CC[C@H]3O)cc(Cc3ccc(-n4cccn4)cc3)c21 [Compound 496, N-[(1R,2R)-2-hydroxycyclobutyl]-1-methyl-7-[(4-pyrazol-1-ylphenyl)methyl]pyrazolo-[4,3-b]pyridine-5-carboxamide] |
| 1370 | 64.6 | – | Cc1ccc([C@@H](F)c2cc(C(=O)N[C@H]3CCCC[C@@H]3O)nc3ccsc23)cn1 [Compound 234] |
